59 compounds from the supplement of paper PMC6206229 can be followed below.

The test system of assay [1] is Staphylococcus aureus ATCC 29213 (MSSA). As to the kind of experiment: minimum inhibitory concentration; extreme values may be limits of the assay. In a few lines: (§1)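 Methicillin-susceptible and methicillin-resistant Staphylococcus aureus were tested by broth microdilution in 96-well plates, following CLSI guidance with a resazurin redox read-out. Compounds were tested from 0 to 100 µM and incubated with bacteria for 24 h at 37°C, then 30 µl of 0.015% resazurin was added for 2–4 h, with positive controls on each plate. The minimum inhibitory concentration was the lowest concentration that stayed blue rather than turning pink. Runs were done at least twice in triplicate.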

Assay [2] concerns Staphylococcus aureus ATCC 700699 (MRSA). The assay is described as above. In a few lines: as §1

≈ marks a conversion by molar mass, not a printed value.

For the compound `Cc1cc(C2=NOC(c3cc(Cl)c(F)c(Cl)c3)(C(F)(F)F)C2)ccc1C(=O)NCc1ccc2c(c1)C(C)(C)OB2O` (stereo not drawn), the minimum inhibitory concentration in assay [1] and in assay [2] was over 50 µM throughout.
Consider `Cc1ccc2[nH]c(C3CCCNC3)c(-c3ccncc3)c2c1` (stereo not drawn), for which the minimum inhibitory concentration in assay [1] and in assay [2] was over 50 µM in each case.
As for `CCc1ccc(S(=O)(=O)Nc2cc(CN3CCN(CCC(C)C)CC3)ccc2C)cc1`, the minimum inhibitory concentration in assay [1] and in assay [2] was over 50 µM each time.
`CC(C)(C)c1cnc(NC(=O)c2ccccc2O)s1`: the minimum inhibitory concentration in assay [1] and in assay [2] was over 50 µM in each case.
Take `CC1CCCN(C(=O)C(C)Nc2cc(Cl)ccc2N2CCOCC2)C1` (stereo not drawn): the minimum inhibitory concentration in assay [1] and in assay [2] was over 50 µM throughout.
Regarding `CCCCN(CCCC)c1c(C#N)cc(S(=O)(=O)Nc2ccccc2)cc1C#N`, the minimum inhibitory concentration in assay [1] and in assay [2] was over 50 µM each time.
In the case of `COc1ccc2nc(C)cc(OCC(=O)Nc3ccccc3OC)c2c1`, the minimum inhibitory concentration in assay [1] and in assay [2] was over 50 µM in each case.
As to `COc1ccc(CCN2CCC(NCc3cccc(N(C)C)c3)CC2)cc1`, the minimum inhibitory concentration in assay [1] and in assay [2] was over 50 µM throughout.
On to `CC(C)(C)c1cc(C(=O)N2CCN(c3nccnc3C#N)CC2)n(Cc2ccccc2)n1`, for which the minimum inhibitory concentration in assay [1] and in assay [2] was over 50 µM in each case.
Take `COc1cc(C2=NCCN2)ccc1-c1cn(-c2cccc(C3=NCCN3)c2)nn1`: the minimum inhibitory concentration in assay [1] and in assay [2] was over 50 µM each time.
Take `O=C(Nc1ccc(N2CCNCC2)cc1)c1ccn2ncc(-c3cccc(Cl)c3)c2n1`: the minimum inhibitory concentration in assay [1] and in assay [2] was over 50 µM each time.
As for `Cc1ccc2oc(-c3cc(NC(=O)Cc4ccccc4)ccc3Cl)nc2c1`, the minimum inhibitory concentration in assay [1] and in assay [2] was over 50 µM each time.
Take `c1coc(CNc2nc(N3CCCCC3)nc3ccccc23)c1`: the minimum inhibitory concentration in assay [1] and in assay [2] was over 50 µM throughout.
With `Nc1ccc(C(=O)Nc2ccc(-c3nc4ccccc4o3)cc2)cc1`, the minimum inhibitory concentration in assay [1] and in assay [2] was over 50 µM in each case.
For the compound `NS(=O)(=O)c1cccc(-c2ccc3ncc(N4CCOCC4)nc3c2)c1`, the minimum inhibitory concentration in assay [1] and in assay [2] was over 50 µM throughout.
`COc1ccc(-c2cnc3ccc(NCc4ccc(S(N)(=O)=O)cc4)nn23)cn1`: the minimum inhibitory concentration in assay [1] and in assay [2] was over 50 µM throughout.
On to `CC(=O)NC[C@H]1CN(c2ccc(N3CCSCC3)c(F)c2)C(=O)O1`, for which the minimum inhibitory concentration in assay [1] was found to be 6.25 µM (≈ 2.21 µg/mL); in assay [2], 3.12 µM (≈ 1.1 µg/mL).
The matching figures for `Cc1ccc2[nH]c3c(NCCN(C)C)ncnc3c2c1`: over 50 µM and over 50 µM.
Taken in the same sequence, the figures for `COc1ccc(C2=NCCN2)cc1-c1cn(-c2cccc(C3=NCCN3)c2)nn1` were over 50 µM and over 50 µM.
Take `CNc1snc(C)c1C(=O)NCCOc1ccc(OC)cc1`: the minimum inhibitory concentration in assay [1] and in assay [2] was over 50 µM in each case.
`COc1cccc(CC(=O)N2CCC(n3c(C)nc4ccc(F)cc43)CC2)c1`: the minimum inhibitory concentration in assay [1] and in assay [2] was over 50 µM throughout.
As for `NCCCC(N)(C(=O)O)C(F)F` (stereo not drawn), the minimum inhibitory concentration in assay [1] and in assay [2] was over 50 µM each time.
With `COc1ccc(C2(C(=O)Nc3ccc(Br)cc3)CCCC2)cc1`, the minimum inhibitory concentration in assay [1] and in assay [2] was over 50 µM in each case.
Consider `COc1cccc(NC(=O)c2c(NC(=O)c3cccnc3)sc3c2CCC3)c1`, for which the minimum inhibitory concentration in assay [1] and in assay [2] was over 50 µM each time.
On to `COc1cccc(-c2cc3c(Nc4cccnc4)nccc3[nH]2)c1`, for which the minimum inhibitory concentration in assay [1] and in assay [2] was over 50 µM each time.
In the case of `Cc1nn(C)c(C)c1NS(=O)(=O)c1c(Cl)cc(-c2ccnc(N3CCNCC3)c2)cc1Cl`, the minimum inhibitory concentration in assay [1] and in assay [2] was over 50 µM in each case.
In the case of `N#Cc1ccc(-c2ccc(OCC(N)=O)cc2)cc1`, the minimum inhibitory concentration in assay [1] and in assay [2] was over 50 µM each time.
In the case of `COc1ccc(-c2cnc3cnc(-c4cccc(OC(C)C)c4)cn23)cc1`, the minimum inhibitory concentration in assay [1] and in assay [2] was over 50 µM throughout.
In the case of `COc1cc(CN2CCC3(C=Cc4ccccc43)CC2)cc2c1OCO2`, the minimum inhibitory concentration in assay [1] and in assay [2] was over 50 µM each time.
For the compound `CCOC(=O)c1noc(N)c1-c1ccccc1`, the minimum inhibitory concentration in assay [1] and in assay [2] was 50 µM (≈ 11.6 µg/mL) throughout.
In the case of `CN1CCCC1CCO[C@](C)(c1ccccc1)c1ccc(Cl)cc1` (stereo partly drawn), the results for the minimum inhibitory concentration in assay [1] and in assay [2] were over 50 µM and 50 µM (≈ 17.2 µg/mL), respectively.
Taken in the same sequence, the figures for `CCCCOC(=O)Nc1cc2nc(C3CCCCC3)[nH]c2cc1N1CCCC1` were over 50 µM and over 50 µM.
Taken in the same sequence, the figures for `CC(C)n1nc(-c2cc3c(Cl)cccc3[nH]2)c2c(N)ncnc21` were over 50 µM and over 50 µM.
As to `Nc1ccc2ncnc(Nc3ccc(OCc4cccc(F)c4)c(Cl)c3)c2c1`, the minimum inhibitory concentration in assay [1] and in assay [2] was over 50 µM in each case.
Consider `CC(=O)NC[C@@H]1CN(c2ccc(N3CCOCC3)c(F)c2)C(=O)O1`, for which the minimum inhibitory concentration in assay [1] stood at 6.25 µM (≈ 2.11 µg/mL); in assay [2] it was 3.12 µM (≈ 1.05 µg/mL).
The matching figures for `CN1CCC(c2cc(-c3ccncc3)c(-c3ccc(F)cc3)[nH]2)CC1`: over 50 µM and over 50 µM.
Taken in the same sequence, the figures for `C[C@H]1c2cccc(O)c2C(=O)C2=C(O)[C@]3(O)C(=O)C(C(N)=O)=C(O)[C@@H](N(C)C)[C@@H]3[C@@H](O)[C@@H]21` were 0.781 µM (≈ 0.347 µg/mL) and 25 µM (≈ 11.1 µg/mL).
The matching figures for `CC(C)(CN)c1nc(-c2ccc(Cl)c(O)c2)c(-c2ccnc(N)n2)[nH]1`: over 50 µM and over 50 µM.
On to `CCOc1ccc(-c2nc(NC(=O)CS(=O)(=O)c3ccccc3)sc2C)cc1`, for which the minimum inhibitory concentration in assay [1] and in assay [2] was over 50 µM each time.
For the compound `COc1cc(-c2cc(-c3ccc(S(C)(=O)=O)cc3)cnc2N)ccc1O`, the minimum inhibitory concentration in assay [1] and in assay [2] was over 50 µM in each case.
In the case of `O=C(N[C@H](Cc1ccccc1)C(=O)Nc1ccccc1N1CCOCC1)c1cccs1`, the minimum inhibitory concentration in assay [1] and in assay [2] was over 50 µM each time.
Turning to `Cc1cccc(C(=O)Nc2ccnc(N(C)C3CCN(CC(C)C)CC3)c2)c1`, the minimum inhibitory concentration in assay [1] and in assay [2] was over 50 µM throughout.
For the compound `c1ccc(-c2[nH]c3ccccc3c2C(c2ccccn2)N2CCCC2)cc1` (stereo not drawn), the minimum inhibitory concentration in assay [1] and in assay [2] was over 50 µM throughout.
For `Cc1ccccc1CN1CCC(O)(c2ccc(Cl)c(C(F)(F)F)c2)CC1`, the minimum inhibitory concentration in assay [1] and in assay [2] was over 50 µM throughout.
In the case of `Cc1cc(Cl)ccc1NC(=O)CCc1ccc(S(=O)(=O)NCC(C)C)cc1`, the minimum inhibitory concentration in assay [1] and in assay [2] was over 50 µM throughout.
As for `Nc1ncnc2c1ncn2[C@@H]1O[C@H](COS(=O)(=O)NC(=O)c2ccccc2O)[C@@H](O)[C@H]1O`, the minimum inhibitory concentration in assay [1] and in assay [2] was over 50 µM each time.
In the case of `CS(=O)(=O)c1ccccc1C(=O)N(Cc1ccccc1)c1ccccc1`, the minimum inhibitory concentration in assay [1] and in assay [2] was over 50 µM throughout.
Turning to `O=C(Nc1ccc(N2CCNCC2)nc1)c1oc(-c2ccccc2)nc1C(F)(F)F`, the minimum inhibitory concentration in assay [1] and in assay [2] was over 50 µM throughout.
As to `CNc1nnc(Sc2cnn(-c3ccccc3)c(=O)c2Cl)s1`, the minimum inhibitory concentration in assay [1] and in assay [2] was over 50 µM throughout.
As for `CNC1C(OC2C(OC3C(O)C(O)C(N=C(N)N)C(O)C3N=C(N)N)OC(C)C2(O)C=O)OC(CO)C(O)C1O` (stereo not drawn), the minimum inhibitory concentration in assay [1] and in assay [2] was over 50 µM each time.
In the case of `Cc1ccc2c(c1C)NC(=O)C21NN=C(c2ccccc2)S1` (stereo not drawn), the minimum inhibitory concentration in assay [1] and in assay [2] was over 50 µM in each case.
Turning to `COc1cccc(-c2nc3c(N4CCCC4)cccc3n2CC2CCCN2)n1` (stereo not drawn), the figures for the minimum inhibitory concentration in assay [1] and in assay [2] were 25 µM (≈ 9.44 µg/mL) and 50 µM (≈ 18.9 µg/mL), respectively.
Taken in the same sequence, the figures for `O=C(Nc1ccc2c(c1)B(O)OC2)c1ccccc1C(F)(F)F` were over 50 µM and over 50 µM.
For `Cc1c[nH]c(CCNC(=O)c2cc(-c3ccc(Cl)cc3)cs2)n1`, the minimum inhibitory concentration in assay [1] and in assay [2] was over 50 µM in each case.
`CC1CC1C(=O)NC1CCN(CC2(c3ccccc3)CCCCC2)CC1` (stereo not drawn): the minimum inhibitory concentration in assay [1] and in assay [2] was over 50 µM throughout.
Regarding `Cc1ccc(NC(=O)c2cc(S(=O)(=O)NC(C)(C)C)ccc2C)nc1`, the minimum inhibitory concentration in assay [1] and in assay [2] was over 50 µM in each case.
Turning to `Clc1ccc(Cl)c(CO[C@H]2CCCC[C@@H]2n2ccnc2)c1`, the minimum inhibitory concentration in assay [1] and in assay [2] was over 50 µM each time.
In the case of `COc1ccc(Cl)cc1NC(=O)CN(C)C(=O)c1cnn(-c2ccccc2)n1`, the minimum inhibitory concentration in assay [1] and in assay [2] was over 50 µM throughout.
Turning to `COc1cncc(-c2cncc(N3CCN(c4ccncc4)CC3)n2)c1`, the minimum inhibitory concentration in assay [1] and in assay [2] was over 50 µM in each case.
